The source of these data is ChEMBL document CHEMBL2169770, “The discovery and optimization of a novel class of potent, selective, and orally bioavailable anaplastic lymphoma kinase (ALK) inhibitors with potential utility for the treatment of cancer” (J Med Chem, 2012).

The nature of series [1]: Oral bioavailability in Beagle dog. The format is ADME, organism-based, Canis lupus familiaris. As to conditions: in vivo.
Series [2] can be described thus: Oral bioavailability in rat. The class given is ADME, organism-based. The note with it: in vivo.
A short description of series [3]: Volume of distribution at steady state in rat. The format is ADME, organism-based. As to conditions: in vivo, read-out: Vdss.
Series [4] can be described thus: Volume of distribution at steady state in Beagle dog. The class given is ADME, organism-based, Canis lupus familiaris. The note with it: in vivo, read-out: Vdss.

The bioavailability is the share of a dose that reaches the circulation, judged against a reference dose that is usually intravenous. A low value points to poor availability. `CC(C)NC(=O)[C@H]1CC[C@@H](n2/c(=N/C(=O)c3ccc(F)cc3)[nH]c3ccc(CN4CCC(C(C)(C)O)CC4)cc32)CC1`: the bioavailability in series [1] is 52%; in series [2], 20%. The Vd in series [3] was 6.4 L/kg; in series [4] it was 1.58 L/kg.

Consider `CC(C)NC(=O)[C@H]1CC[C@@H](n2/c(=N/C(=O)c3cc(F)cc(F)c3)[nH]c3ccc(CN4CCC(C(C)(C)O)CC4)cc32)CC1`, for which the values for the bioavailability in series [1] and in series [2] were 71% and 11%, respectively. In addition, the Vd was found to be 5.42 L/kg in series [3] and 1.82 L/kg in series [4].
